Data from patent US10526336B2, “Fused heteroaryl derivatives as orexin receptor antagonists” (Merck Sharp & Dohme Corp., priority 2014, dated 2020).
pIC50: −log10 of the molar value.

Molecular target: human orexin-2 receptor (Homo sapiens (Human), UniProt O43614)
Assay: FLIPR Ca2+ Flux Assay, orexin-2 receptor antagonism in CHO cells
Type: cell-based
Details: CHO cells expressing the human orexin-2 receptor; agonist 70 pM Ala-6,12 orexin-A; read-out: hOX2 FLIPR IC50
Procedure, shortened: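 CHO cells expressing rat OX1R or human OX2R, Fluo-4AM loaded, given compounds for 5 min, then challenged with 70 pM Ala-6,12 human orexin-A in HBSS/HEPES/BSA/probenecid, pH 7.4. FLIPR calcium fluorescence recorded 5 min; peak height versus agonist-alone gives IC50.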

human orexin-2 receptor, sequence (O43614 whole entry): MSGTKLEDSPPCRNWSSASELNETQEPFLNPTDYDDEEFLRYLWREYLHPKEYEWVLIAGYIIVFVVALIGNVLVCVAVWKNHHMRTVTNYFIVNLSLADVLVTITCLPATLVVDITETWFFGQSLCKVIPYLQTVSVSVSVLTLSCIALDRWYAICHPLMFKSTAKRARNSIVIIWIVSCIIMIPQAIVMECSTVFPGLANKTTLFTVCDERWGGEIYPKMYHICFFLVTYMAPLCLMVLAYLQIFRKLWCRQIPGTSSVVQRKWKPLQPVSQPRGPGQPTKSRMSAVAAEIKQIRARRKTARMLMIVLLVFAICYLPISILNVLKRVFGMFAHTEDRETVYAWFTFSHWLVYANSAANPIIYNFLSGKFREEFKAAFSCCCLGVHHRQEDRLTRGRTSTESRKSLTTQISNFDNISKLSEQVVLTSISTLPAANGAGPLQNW

C[C@@H]1CC[C@@H](Nc2nccc3c2ncn3C)CN1C(=O)c1ccccc1-n1nccn1 [Example 101, (2-(2H-1,2,3-triazol-2-yl)phenyl)((2R,5R)-2-methyl-5-((1-methyl-1H-imidazo[4,5-c]pyridin-4-yl)amino)piperidin-1-yl)methanone]
pIC50: 7.41

C[C@@H]1CC[C@@H](Oc2nccn3cncc23)CN1C(=O)c1ccccc1-n1nccn1 [Example 102, (2-(2H-1,2,3-triazol-2-yl)phenyl)((2R,5R)-5-(imidazo[1,5-a]pyrazin-8-yloxy)-2-methylpiperidin-1-yl)methanone]
pIC50: 7.85

Cc1ncc2c(O[C@@H]3CC[C@@H](C)N(C(=O)c4ccccc4-n4nccn4)C3)nccn12 [Example 103, (2-(2H-1,2,3-triazol-2-yl)phenyl)((2R,5R)-2-methyl-5-((3-methylimidazo[1,5-a]pyrazin-8-yl)oxy)piperidin-1-yl)methanone]
pIC50: 7.63

Cc1nc2ccnc(O[C@@H]3CC[C@@H](C)N(C(=O)c4ccccc4-n4nccn4)C3)n2n1 [Example 104, (2-(2H-1,2,3-triazol-2-yl)phenyl)((2R,5R)-2-methyl-5-((2-methyl-[1,2,4]triazolo[1,5-c]pyrimidin-5-yl)oxy)piperidin-1-yl)methanone]
pIC50: 7.22

Cc1nc2ccnc(N[C@@H]3CC[C@@H](C)N(C(=O)c4ccccc4-n4nccn4)C3)n2n1 [Example 105, (2-(2H-1,2,3-triazol-2-yl)phenyl)((2R,5R)-2-methyl-5-((2-methyl-[1,2,4]triazolo[1,5-c]pyrimidin-5-yl)amino)piperidin-1-yl)methanone]
pIC50: 7.56

C[C@@H]1CC[C@@H](Oc2cccn3c(=O)n(C)nc23)CN1C(=O)c1ccccc1-n1nccn1 [Example 106, 8-(((3R,6R)-1-(2-(2H-1,2,3-triazol-2-yl)benzoyl)-6-methylpiperidin-3-yl)oxy)-2-methyl-[1,2,4]triazolo[4,3-a]pyridin-3(2H)-one]
pIC50: 6.75
